We go through one compound from patent publication US4548750A, “Pyrimido[4,5-d][2]benzazepines useful as sedatives and anxiolytic agents” (Hoffmann-La Roche Inc., priority 1983, dated 1985).

For one series, the system named is male mice. Description: Inclined Screen (paralyzing effects causing mice to slide off the screen). Type of series: in vivo. The note with it: Mus musculus; groups of 6 male mice; at least 4 hours observation; maximum dose 500 mg/kg; read-out: Inclined Screen (PD50). As for the experimental part: Groups of 6 male mice are given the test drug (maximum dose of 500 mg/kg) and then are left on the inclined screen at least 4 hours for observation of paralyzing effects severe enough to cause them to slide off the screen. If activity is observed, additional doses are taken until at least two are reached at which some, but not all of the animals slide off the screen. Doses at which mice fall off the screen due to toxicity or excitation are not included in the calculation of PD50.

Another series is described as follows: Toxicity (LD50). The conditions noted are these: in vivo; PO; species not given.
The next series deals with mice. Nature of the series: Footshock (blocking of footshock-induced fighting in pairs of mice). The conditions noted are these: Mus musculus; pairs of mice pretreated 1 hour prior to second shocking; 3 out of 3 pairs must be blocked from fighting; maximum dose 100 mg/kg. Format: in vivo. As for the experimental part: A pair of mice is confined under a one liter beaker placed on a grid which presents shock to the feet. At least 5 fighting episodes are elicited in a two-minute period. Pairs of mice are marked and pretreated 1 hour prior to a second shocking. Logarithmic dose intervals are utilized up to a maximum of 100 mg/kg. At the 100% blocking dose, 3 out of 3 pairs must be blocked from fighting.

A further series relates to Cats. Nature of the series: Unanesthetized Cat (minimum symptoms, usually ataxia). Format: in vivo. The conditions noted are these: Felis catus, po, cats treated orally. Here is the method: Cats are treated orally and observed for minimum symptoms--usually ataxia. One cat is used at a dose of 50 mg/kg. If activity is present, up to three cats/dose are used. Results are given as minimum effective dose.

As to `Cc1nc(Cl)c2c(n1)CN=C(c1ccccc1)c1cc(Cl)ccc1-2` [1,9-Dichloro-3-methyl-7-phenyl-5H-pyrimido[4,5-d][2]benzazepine], the ED50 in the series with male mice came out at 400 mg/kg. Moreover, the 50% lethal dose (LD50) in “Toxicity (LD50)” was above 1000 mg/kg. In the series with mice, the ED100 amounted to 10 mg/kg. Also, the minimal effective dose with Cats came out at 10 mg/kg.

The LD50 is the dose expected to kill half of the subjects tested. The term minimal effective dose denotes the lowest level tested that produced the effect sought.
